Data taken from publication PMC9516332 (Frontiers in Oncology, 2022).
Where two headings read alike, the source gives them in different places.

Tests used:
AP-1060 (ETV6-NTRK3) = assay: Cell viability assay; settings: read-out: IC50 in cell proliferation assay
[1] = molecular target: T1, panel of 255 wild-type kinases (Homo sapiens, UniProt P15735); settings: kinase PHKG2; 1 µmol/L single concentration; ref DOI: 10.1158/1535-7163.MCT-18-0877; cited from earlier work
T1 sequence (P15735 1-406): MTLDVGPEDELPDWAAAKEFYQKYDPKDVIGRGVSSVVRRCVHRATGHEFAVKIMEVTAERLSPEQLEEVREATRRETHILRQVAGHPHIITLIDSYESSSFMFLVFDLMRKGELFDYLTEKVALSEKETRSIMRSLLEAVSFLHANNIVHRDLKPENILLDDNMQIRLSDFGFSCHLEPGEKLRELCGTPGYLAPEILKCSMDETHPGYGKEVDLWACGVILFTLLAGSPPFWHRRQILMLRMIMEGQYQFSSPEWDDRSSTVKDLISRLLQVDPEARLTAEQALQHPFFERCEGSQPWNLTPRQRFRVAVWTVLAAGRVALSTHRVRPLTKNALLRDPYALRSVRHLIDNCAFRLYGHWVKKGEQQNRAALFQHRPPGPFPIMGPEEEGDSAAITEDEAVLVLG

134 cancer cell lines = assay: Cell viability assay (ATPlite, 72 hours), IC50 on cancer cell line panel

## CCc1cc2c(cc1N1CCC(N3CCOCC3)CC1)C(C)(C)c1[nH]c3cc(C#N)ccc3c1C2=O [alectinib]
AP-1060 (ETV6-NTRK3)
  IC50: 1130 nM
[1]
  %-inhibition at 1 µmol/L, PHKG2: 75%
134 cancer cell lines; HEC-6, read-out: IC50 in cell proliferation assay
  IC50: > 10 µM
134 cancer cell lines; Homo sapiens, 769-P, read-out: IC50 in cell proliferation assay
  IC50: 9.15 µM
134 cancer cell lines; Homo sapiens, 786-0, read-out: IC50 in cell proliferation assay
  IC50: > 10 µM
134 cancer cell lines; Homo sapiens, A 172, read-out: IC50 in cell proliferation assay
  IC50: > 10 µM
134 cancer cell lines; Homo sapiens, A204, read-out: IC50 in cell proliferation assay
  IC50: > 10 µM
134 cancer cell lines; Homo sapiens, A498, read-out: IC50 in cell proliferation assay
  IC50: > 10 µM
134 cancer cell lines; Homo sapiens, A549, read-out: IC50 in cell proliferation assay
  IC50: > 10 µM
134 cancer cell lines; Homo sapiens, A704, read-out: IC50 in cell proliferation assay
  IC50: > 10 µM
134 cancer cell lines; Homo sapiens, A-375, read-out: IC50 in cell proliferation assay
  IC50: > 10 µM
134 cancer cell lines; Homo sapiens, A-427, read-out: IC50 in cell proliferation assay
  IC50: > 10 µM
134 cancer cell lines; Homo sapiens, ACHN, read-out: IC50 in cell proliferation assay
  IC50: 3.52 µM
134 cancer cell lines; Homo sapiens, AN3-CA, read-out: IC50 in cell proliferation assay
  IC50: > 10 µM
134 cancer cell lines; Homo sapiens, ASPC1, read-out: IC50 in cell proliferation assay
  IC50: > 10 µM
134 cancer cell lines; Homo sapiens, AU565, read-out: IC50 in cell proliferation assay
  IC50: > 10 µM
134 cancer cell lines; Homo sapiens, BT-20, read-out: IC50 in cell proliferation assay
  IC50: > 10 µM
134 cancer cell lines; Homo sapiens, BT-474, read-out: IC50 in cell proliferation assay
  IC50: > 10 µM
134 cancer cell lines; Homo sapiens, BT-549, read-out: IC50 in cell proliferation assay
  IC50: 2.71 µM
134 cancer cell lines; Homo sapiens, BXPC-3, read-out: IC50 in cell proliferation assay
  IC50: > 10 µM
134 cancer cell lines; Homo sapiens, C-33-A, read-out: IC50 in cell proliferation assay
  IC50: 1.99 µM
134 cancer cell lines; Homo sapiens, CAL-27, read-out: IC50 in cell proliferation assay
  IC50: 1.18 µM
134 cancer cell lines; Homo sapiens, CCF-STTG1, read-out: IC50 in cell proliferation assay
  IC50: 3.02 µM
134 cancer cell lines; Homo sapiens, CCRF-CEM, read-out: IC50 in cell proliferation assay
  IC50: > 10 µM
134 cancer cell lines; Homo sapiens, COLO 205, read-out: IC50 in cell proliferation assay
  IC50: > 10 µM
134 cancer cell lines; Homo sapiens, COLO-829, read-out: IC50 in cell proliferation assay
  IC50: > 10 µM
134 cancer cell lines; Homo sapiens, DLD-1, read-out: IC50 in cell proliferation assay
  IC50: > 10 µM
134 cancer cell lines; Homo sapiens, DU-145, read-out: IC50 in cell proliferation assay
  IC50: > 10 µM
134 cancer cell lines; Homo sapiens, DU-4475, read-out: IC50 in cell proliferation assay
  IC50: > 10 µM
134 cancer cell lines; Homo sapiens, Daoy, read-out: IC50 in cell proliferation assay
  IC50: 3.45 µM
134 cancer cell lines; Homo sapiens, DoTc2-4510, read-out: IC50 in cell proliferation assay
  IC50: 0.477 µM
134 cancer cell lines; Homo sapiens, EOL1, read-out: IC50 in cell proliferation assay
  IC50: 0.193 µM
134 cancer cell lines; Homo sapiens, FaDu, read-out: IC50 in cell proliferation assay
  IC50: > 10 µM
134 cancer cell lines; Homo sapiens, G-361, read-out: IC50 in cell proliferation assay
  IC50: > 10 µM
134 cancer cell lines; Homo sapiens, HCC827, read-out: IC50 in cell proliferation assay
  IC50: 1.59 µM
134 cancer cell lines; Homo sapiens, HCC4006, read-out: IC50 in cell proliferation assay
  IC50: 1.33 µM
134 cancer cell lines; Homo sapiens, HCT-15, read-out: IC50 in cell proliferation assay
  IC50: > 10 µM
134 cancer cell lines; Homo sapiens, HCT-116, read-out: IC50 in cell proliferation assay
  IC50: > 10 µM
134 cancer cell lines; Homo sapiens, HEC-1, read-out: IC50 in cell proliferation assay
  IC50: 1.32 µM
134 cancer cell lines; Homo sapiens, HEC-1B, read-out: IC50 in cell proliferation assay
  IC50: > 10 µM
134 cancer cell lines; Homo sapiens, HL-60, read-out: IC50 in cell proliferation assay
  IC50: > 10 µM
134 cancer cell lines; Homo sapiens, HT, read-out: IC50 in cell proliferation assay
  IC50: > 10 µM
134 cancer cell lines; Homo sapiens, HT-1080, read-out: IC50 in cell proliferation assay
  IC50: 7.55 µM
134 cancer cell lines; Homo sapiens, Hs746T, read-out: IC50 in cell proliferation assay
  IC50: > 10 µM
134 cancer cell lines; Homo sapiens, Hs-578T, read-out: IC50 in cell proliferation assay
  IC50: 4.92 µM
134 cancer cell lines; Homo sapiens, HuTu80, read-out: IC50 in cell proliferation assay
  IC50: > 10 µM
134 cancer cell lines; Homo sapiens, J82, read-out: IC50 in cell proliferation assay
  IC50: > 10 µM
134 cancer cell lines; Homo sapiens, Jurkat E6.1, read-out: IC50 in cell proliferation assay
  IC50: > 10 µM
134 cancer cell lines; Homo sapiens, K562, read-out: IC50 in cell proliferation assay
  IC50: > 10 µM
134 cancer cell lines; Homo sapiens, KATO III, read-out: IC50 in cell proliferation assay
  IC50: > 10 µM
134 cancer cell lines; Homo sapiens, KG-1, read-out: IC50 in cell proliferation assay
  IC50: 0.442 µM
134 cancer cell lines; Homo sapiens, KLE, read-out: IC50 in cell proliferation assay
  IC50: > 10 µM
134 cancer cell lines; Homo sapiens, KMS-11, read-out: IC50 in cell proliferation assay
  IC50: > 10 µM
134 cancer cell lines; Homo sapiens, KU812, read-out: IC50 in cell proliferation assay
  IC50: > 10 µM
134 cancer cell lines; Homo sapiens, Kasumi 1, read-out: IC50 in cell proliferation assay
  IC50: 1.53 µM
134 cancer cell lines; Homo sapiens, LC-2-ad, read-out: IC50 in cell proliferation assay
  IC50: 1.11 µM
134 cancer cell lines; Homo sapiens, LNCaP-Clone-FGC, read-out: IC50 in cell proliferation assay
  IC50: > 10 µM
134 cancer cell lines; Homo sapiens, LS174T, read-out: IC50 in cell proliferation assay
  IC50: > 10 µM
